Laboratory results reported in patent publication US5916566A, “Use of benzoin gum to inhibit P-glycoprotein-mediated resistance of pharmaceutical compounds” (AvMax, Inc., priority 1998, dated 1999).
Like-named read-outs stand apart in the source and are kept apart here.

System: rat cytochrome P4503A
Settings: for % inhibition (0.001%): oil ingredient at 0.001 wt % (Table 2); for % inhibition (0.01%): oil ingredient at 0.01 wt % (Table 2); for % inhibition (0.0001%): oil ingredient at 0.0001 wt % (Table 2)

Structure (SMILES)	% inhibition (0.001%) [%]	% inhibition (0.01%) [%]	% inhibition (0.0001%) [%]	further results
CC12CCC(CC1=O)C2(C)C (racemic) [Camphor-(±), 1,7,7-Trimethylbicyclo[2.2.1]heptan-2-one]	57	87		
C=CC(C)(O)CCC=C(C)C (racemic) [Linalcol-(±), 3,7-Dimethyl-1,6-octadien-3-ol]	72.0	85	41	
C=C1C2CCC(C2)C1(C)C (single isomer, unassigned) [Camphene-(+), 2,2-Dimethyl-3-methylenebicyclo[2.2.1]heptane]	12.4		-49	
C=C(C)C1CC=C(C)C(O)C1 (single isomer, unassigned) [Carveol-(-), p-Mentha-6,8-dien-2-ol]	60		2	
C/C=C/c1ccc(OC)cc1 [Anethole, trans-, 4-Propenylanisole]	53	100		
CC1(C)[C@H]2CC[C@]1(C)[C@H](O)C2 [Borneol-(IS)-endo(-), 1,7,7-Trimethylbicyclo[2.2.1]heptan-2-ol]	80	100	20	
COc1cc(CNC(=O)CCCC/C=C/C(C)C)ccc1O [Capsaicin, trans-8-Methyl-N-vanillyl-6 nonenamide]	68		27	
CC1=CCC2C(C1)C2(C)C (stereo not drawn) [Carene-3-(Δ)]	34		-26	
Cc1ccc(C(C)C)cc1O [Carvacrol, 5-isoPropyl-2-methylphenol]	93	97	11	
C=C(C)[C@@H]1CC=C(C)C(=O)C1 [Carvone-(R)-(-), p-Mentha-6,8-dien-2-one]	69	100	27	
C=C(C)[C@H]1CC=C(C)C(=O)C1 [Carvone-(S)-(+), p-Mentha-6,8-dien-2-one]	70.5		30	
C=C1CC/C=C(\C)CC[C@@H]2[C@@H]1CC2(C)C [Caryophyllene, trans-(-), β Caryophyllene]	85		26	
O=C/C=C/c1ccccc1 [Cinnamic Aldehyde, trans-, 3-Phenylpropenaldehyde]	29.0	78		
CC(C)=CCC/C(C)=C/C=O [Citral]	54	99	44	
CC(C)=CCCC(C)CCO (stereo not drawn) [Citronellal-(DL)-(β), 3,7-Dimethyl-6-octen-1-ol]	86	95	41	
C=CCc1ccc(OC)cc1 [Entragole, 4-Allylanisole]	69.2	100	7	
CCOC(=O)/C=C/c1ccccc1 [Ethyl Cinnamate, trans-]	-16		-13	

Structure (SMILES)	% inhibition (0.001%) [%]	% inhibition (0.01%) [%]	% inhibition (0.0001%) [%]	further results
CCOc1cc(C=O)ccc1O [Ethyl Vanillin, 3-Ethoxy-4-hydroxybenzoledhyde]		58		
CC12CCC(CC1)C(C)(C)O2 [Eucatyptol, 1,8-Cincole]	64	88	38	
C=CCc1ccc(O)c(OC)c1 [Eugenol, 4-Allyl-2-methoxyphenol]	66	100	9.8	
CC1(C)C(=O)[C@]2(C)CC[C@H]1C2 [Fenchone-(IR)-(-), 1,3,3-Trimethylbicyclo[2.2.1]heptan-2-one]	38		14	
CC(=O)OC/C=C(\C)CCC=C(C)C [Geranyl Acetate, trans-3,7-Dimethyl-2,,6-octadien-1-yl acetate]	51.5	73		
CC(=O)N1CCN(c2ccc(OCC3COC(Cn4ccnc4)(c4ccc(Cl)cc4Cl)O3)cc2)CC1 (stereo not drawn) [Ketoconazole, reference compound]				% inhibition (reference compound at 0.000001 % (Table 3)): 8%; % inhibition (reference compound at 0.000005 % (Table 3)): 20%; % inhibition (reference compound at 0.00001 % (Table 3)): 42%; % inhibition (reference compound at 0.00005 % (Table 3)): 100%
C=C(C)[C@@H]1CC=C(C)CC1 [Limonene-(S)-(-), p-Mentha-1,8-diene]	30	82.3		
C=CC(C)(CCC=C(C)C)OC(C)=O (stereo not drawn) [Linalyl Acetate, 3,7-Dimethyl-1,6-octadien-3-yl acetate]	55.8	100		
COC(=O)c1ccccc1N [Methyl Anthranilate, Methyl 2-aminobenzoate]	23		-7	
COC(=O)c1ccccc1O [Methyl Salicylate, Methyl-2-hydroxybenzoate]	12	86		
C=CC(=C)CCC=C(C)C [Myrcene-β, 7-Methyl-3-methylene-1,6-octadiene]	13		0	
C=C1CC[C@H]2C[C@@H]1C2(C)C [Pinene-(IS)-(-)-β, 6,6-Dimethyl-2-mehylenebicyclo[3.1.1]heptane]	60	88	-10	
CC(C)=C1CC[C@@H](C)CC1=O [Pulegone-(R)-(+), p-Menth-4-(8)-en-3-one]	31		-17	
CC1=CCC(C(C)(C)O)CC1 (stereo not drawn) [Terpincol-α, p-Menth-1-en-8-ol]	86	100	13.4	
CC1=CCC(O)(C(C)C)CC1 (stereo not drawn) [Terpinen-4-ol, p-Menth-1-en-4-ol]	80	100	3.81	
CC1=CC=C(C(C)C)CC1 [Terpinene-α, p-Mentha-1,3-diene]	28		-6	
Cc1ccc(C(C)C)c(O)c1 [Thymol, 2-isoPropyl-5-methylphenol]	56	100		
